This is an account of results in US11638745B2, “Method to improve neurologic outcomes in temperature managed patients” (University of Pittsburgh—Of the Commonwealth System of …, priority 2015, dated 2023).

Data set [1] relates to RBM3. As to the kind of experiment: RBM3 protein levels by Western blot in drug-treated primary cortical neurons at 37° C. or 36° C. The conditions noted are these: for RBM3 protein expression: DIV7 neurons cultured at 37° C., 24 h treatment with increasing dose; for RBM3 levels: 24 h treatment. The class given is cell-based, rat. As to the method:
Primary Cortical Neuron Culture. Embryos (mixed gender) were isolated from timed pregnant (E16-17) Sprague Dawley rats. Neuron cultures were performed as previously described (Jackson TC, et al. (2013) Pharmacological inhibition of pleckstrin homology domain leucine-rich repeat protein phosphatase is neuroprotective: differential effects on astrocytes. J Pharmacol Exp Ther 347:516-528). Cortices were dissected in ice-cold Hanks balanced salt solution (HBSS; Life Technologies, Grand Island, N.Y., USA) containing sodium bicarbonate (SIGMA), penicillin-streptomycin (Life Technologies), and 4-(2-hydroxyethyl)-1-piperazineethanesulfonic acid (HEPES; Life Technologies). Brain tissues were dissected under a Leica M651 light microscope (Buffalo Grove, Ill., USA), and placed in a 1.5 mL tube containing ˜1 mL prepared HBSS. Tissues were minced and transferred to a 15 mL conical tube. Cells were spun 5 min/200 g/4° C. Supernatant was aspirated, cells resuspended in 2 mL trypsin solution, and incubated 8 min at 37° C. with gentle mixing. Trypsin activity was quenched in 10 mL Neurobasal/B27 (Life Technologies) containing 10% fetal bovine serum (FBS; Thermo Fisher Scientific, Pittsburgh, Pa., USA). Cells were transferred into a new 15 mL conical tube and spun 5 min/200 g/4° C. Supernatant was replaced with 1.5 mL trituration media. Cells were dissociated by 10 passages through a fire-polished glass Pasteur pipette. The cell pellet was resuspended in plating media warmed to 37° C. (Neurobasal Media/B27 supplement prepared+25 μM L-Glutamic Acid+Pen-Strep). Cell number was quantified by automatic counting on a Cellometer (Nexcelom Bioscience, Lawrence, Mass., USA). Cells were seeded onto 6-well culture plates coated with poly-D-lysine (density ˜1.2-1.5×10^6/well). Cultures were maintained by half media replacement every ˜3-4 days in vitro (DIV). The mitotic inhibitor cytosine β-D-arabinofuranoside hydrochloride (ARA-C; 4 μM final concentration) was added in study 1 experiment (e.g. DIV10-11 cultures) to ensure purity of neuronal biochemistry for initial assessment of temperature treatments. Mitotic inhibitors at low levels are non-toxic but still potentially represent a mild stressor (though necessary to guarantee neuron purity) (Ahlemeyer B, et al., (2003) Cytosine arabinofuranoside-induced activation of astrocytes increases the susceptibility of neurons to glutamate due to the release of soluble factors. Neurochem Int 42:567-581). Results of temperature treatments were confirmed in younger DIV6 neurons in the absence of ARA-C (neuron enriched cultures; >90% neurons). Astrocytes were allowed to proliferate in aged cultures, which were not treated with ARA-C. It was observed that astrocytes are necessary for long-term survival of neuron cultures (i.e. DIV26 mature neuron cultures).
Hypothermia Protocols: Neurons were maintained in a 37° C. (normothermic) incubator. Before start of hypothermia, two identical incubators of the same make/model with humidity of ˜95% (all in the same room) were programmed to 36° C. and 33° C. Incubators were allowed a minimum of 48 h equilibration time prior to starting hypothermic experiments. In some experiments, as an additional control, a thermometer was placed inside hypothermic incubators as a secondary gauge of temperature. Temperature as assessed by that approach was independently confirmed to never be under target temperature and fluctuate by no more than ˜0.5° C. On DIV of interest, culture plates were assigned to one of the three experimental temperatures for 24 or 48 h.
Drug Treatments: Drugs were prepared in DMSO or PBS (i.e. for FGF21). All drugs were diluted in conditioned culture media and applied for 24 h. Controls received equal amounts of DMSO/PBS without drugs. Primary neurons were harvested for biochemistry at key time points. RBM3 and CIRBP levels were measured by Western blot. Investigators were not blinded to temperature treatment groups.
Western Blot. […]
For orientation: A western blot detects proteins with antibodies after separation by electrophoresis.

Data set [2] concerns RBM3. The data set is described as above. The class given is cell-based, rat. As to conditions: mature DIV26 neurons, 48 h at 36° C., drug combinations; melatonin 100 μM, T090 1 μM.
The subject of the next data set is RBM3 mRNA. The conditions noted are these: mouse liver, microarray; cited from earlier work.
The conditions of data set [3]: used to chemically lower core body temperature; cited from earlier work.
The conditions of data set [4]: mammals; cited from earlier work.
Data set [5] deals with piglet model of perinatal ischemic brain injury. The conditions noted are these: hypothermia 33.5° C.; cited from earlier work.
A further data set concerns AKT/ERK. Put plainly: AKT/ERK phosphorylation by Western blot in FGF21-treated neurons. The conditions noted are these: neurons at 37° C., 24 h later. The class given is cell-based, rat. On the procedure: Primary Cortical Neuron Culture. Embryos (mixed gender) were isolated from timed pregnant (E16-17) Sprague Dawley rats. Neuron cultures were performed as previously described (Jackson TC, et al. (2013) Pharmacological inhibition of pleckstrin homology domain leucine-rich repeat protein phosphatase is neuroprotective: differential effects on astrocytes. J Pharmacol Exp Ther 347:516-528). Cortices were dissected in ice-cold Hanks balanced salt solution (HBSS; Life Technologies, Grand Island, N.Y., USA) containing sodium bicarbonate (SIGMA), penicillin-streptomycin (Life Technologies), and 4-(2-hydroxyethyl)-1-piperazineethanesulfonic acid (HEPES; Life Technologies). Brain tissues were dissected under a Leica M651 light microscope (Buffalo Grove, Ill., USA), and placed in a 1.5 mL tube containing ˜1 mL prepared HBSS. Tissues were minced and transferred to a 15 mL conical tube. Cells were spun 5 min/200 g/4° C. Supernatant was aspirated, cells resuspended in 2 mL trypsin solution, and incubated 8 min at 37° C. with gentle mixing. […] Cell number was quantified by automatic counting on a Cellometer (Nexcelom Bioscience, Lawrence, Mass., USA). […]
Drug Treatments: Drugs were prepared in DMSO or PBS (i.e. for FGF21). […] RBM3 and CIRBP levels were measured by Western blot. […]
Western Blot. […] Protein concentration was determined using the BCA assay (Thermo Scientific-PIERCE). […]

The next data set deals with PND17 rats given CCI. Put plainly: PND17 CCI with TH/TTM ± FGF21 (MWM behavior, cell death histology). The class given is in vivo, rat. The conditions noted are these: 1 mg/kg FGF21 IV at start and end of TH/TTM. On the procedure: TTM and TH. PND17 and 12 wk adult Sprague Dawley rats receive external cooling. Endogenous RBM3/β-Klotho levels is compared in male and female rats. The TTM group is cooled to 36° C. within ˜5 min then maintained to target temperature for 7 h: 25 min. The TH group is cooled to 33° C. over ˜1 h then to target temperature for 3 h: 15 min then rewarmed at a rate of 1° C./hr. Time spent<37° C. is equal in all groups (8 h: 30 mins). FIGS. 11A, 11B, 12A, and 12B illustrate exemplary protocols for these groups.
PND17 CCI. Rats are given CCI in Aim 271, 72. Isoflurane anesthetized ˜35 g PND17 rats are craniotomized at the left parietal cortex and injured by pneumatic impactor (velocity, 4 m/s; depth, 2.5 mm). Randomization is by (A) temperature (37° C., 36° C., 33° C.), and (B)±CCI±1 mg/kg FGF21 or PBS vehicle. Two bolus IV injections of drug will be given—at the start and end of TH/TTM. Technicians are blind to treatments.
MWM Behavior. Rats are given MWM testing 73, 74. […] Motor skill is assessed measuring swim speed proving cognitive performance is not confounded by motor deficits.
Cell Death. […] Surviving CA1/CA3 cells are counted in H & E stained brain sections 7 d post-injury by unbiased stereology. 21 d contusion volume is measured after MWM in separate rats […]

The mark [6] stands for this setting: young DIV6 neurons at 37° C., same concentrations.
Where [7] appears, read: young DIV6 neurons cooled to 36° C., 5 nM FGF21, 100 μM melatonin, 1 μM T090, 5 μM SRT1720, 1 μM AZD1080.

“Also recorded” adds a separate entry of the source.

As to `O=S(=O)(c1ccccc1)N(CC(F)(F)F)c1ccc(C(O)(C(F)(F)F)C(F)(F)F)cc1` [T090], the RBM3 protein expression entry in the data set on RBM3 [1] is “minor effects on RBM3 protein expression”. For the same molecule, the RBM3 levels result in the data set with RBM3 [1] (setting [6]) is “mildly increased RBM3 levels”; in the data set on RBM3 [1] (young DIV6 neurons at 37° C., same concentrations, listed as T0901317), “mildly induced RBM3”; in the data set with RBM3 [1] (setting [7]) it was “mildly increased RBM3 levels”; in the data set on RBM3 [1] (young DIV6 neurons cooled to 36° C., 5 nM FGF21, 100 μM melatonin, 1 μM T090, 5 μM SRT1720, 1 μM AZD1080, listed as T0901317) it was “augmented RBM3 upregulation; also recorded: mildly induced RBM3”. For the same molecule, the RBM3 induction entry in the data set on RBM3 [2] is given as “failed to do so”. The “RBM3 mRNA” value in the data set on RBM3 mRNA is reported as “upregulate RBM3 mRNA”.
Turning to `N#Cc1ccc2[nH]c(O)c(-c3ccc(CN4CCOCC4)cn3)c2c1` [AZD1080], the RBM3 levels result with RBM3 [1] (setting [6]) and in the data set with RBM3 [1] (setting [7]) was “Neither SRT1720 (Sirtuin antagonist) nor AZD1080 (GSK-3β antagonist) increased RBM3 levels; also recorded: did not affect RBM3 levels” each time.
In the case of `O=C(Nc1ccccc1-c1cn2c(CN3CCNCC3)csc2n1)c1cnc2ccccc2n1` [SRT1720], the RBM3 levels result with RBM3 [1] (setting [6]) and with RBM3 [1] (setting [7]) was “Neither SRT1720 (Sirtuin antagonist) nor AZD1080 (GSK-3β antagonist) increased RBM3 levels; also recorded: did not affect RBM3 levels” throughout.
As to `Nc1ncnc2c1ncn2[C@@H]1O[C@H](COP(=O)(O)O)[C@@H](O)[C@H]1O` [5-AMP, adenosine monophosphate], in data set [3], the side effects result was “profound hypotension and hyperglycemia”. In data set [4], the body temperature result is recorded as “chemically induce hypothermia”.
As for `COc1ccc2[nH]cc(CCNC(C)=O)c2c1` [melatonin], the RBM3 protein expression entry with RBM3 [1] is “minor effects on RBM3 protein expression”. For the same molecule, the RBM3 levels entry in the data set on RBM3 [1] (setting [6]) is recorded as “failed to do so”; with RBM3 [1] (setting [7]), “augmented RBM3 upregulation; also recorded: augmented RBM3 levels; also recorded: increased hypothermia-induced RBM3”; in the data set with RBM3 [1] (young DIV6 neurons cooled to 36° C., 5 nM FGF21, 100 μM melatonin, 1 μM T090, 5 μM SRT1720, 1 μM AZD1080, listed as Melatonin), “augment RBM3 induction”. For the same molecule, the RBM3 induction result in the data set with RBM3 [2] is on record as “failed to do so”. Besides, in data set [5], the hypothermia induced neuroprotection entry is “augments hypothermia (33.5° C.) induced neuroprotection”.

B1: FGF21: Fibroblast growth factor 21 protein, purchased from R&D Systems (protein, UniProt Q9NSA1 29-209, looked up)
Fibroblast growth factor 21: HPIPDSSPLLQFGGQVRQRYLYTDDAQQTEAHLEIREDGTVGGAADQSPESLLQLKALKPGVIQILGVKTSRFLCQRPDGALYGSLHFDPEACSFRELLLEDGYNVYQSEAHGLPLHLPGNKSPHRDPAPRGPARFLPLPGLPPALPEPPGILAPQPPDVGSSDPLSMVGPSQGRSPSYAS
With B1, the “RBM3 levels above baseline” value in the data set with RBM3 [1] (DIV7 neurons cultured at 36° C., 24 h, dose effect) is on record as “increased RBM3 above baseline in a bi-phasic manner”. Moreover, the RBM3 protein expression entry in the data set on RBM3 [1] is “minor effects on RBM3 protein expression”. Also, the RBM3 levels result is “failed to do so” in the data set with RBM3 [1] (setting [6]) and “augment RBM3 induction; also recorded: induces RBM3; also recorded: augments RBM3; also recorded: augmented RBM3 upregulation; also recorded: augmented RBM3 levels; also recorded: increased hypothermia-induced RBM3” in the data set with RBM3 [1] (setting [7]). The AKT/ERK phosphorylation result in the data set on AKT/ERK was “decreased”. Moreover, in the data set with PND17 rats given CCI, the “TH/TTM induced neuroprotection after a CCI” value is “augments TH/TTM induced neuroprotection”. Also, in the data set on RBM3 [2], the RBM3 induction entry is given as “failed to do so”. Further, the body temperature entry in data set [4] is reported as “slight body temperature reduction”.
